According to PubChem BioAssay AID1963869 (Molecular Pharmacology Branch, DTP, NCI, 2024):

Tested on: KRAS patient-derived spheroids with HUVEC/MSC, viability
Experiment: Anticancer human tumor 323965-272-R-J2-PDC patient-derived pancreatic carcinoma cell line growth inhibition [KRAS2]
Conditions: for viability, T/C: stronger effect = lower value
How it was run: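 Combination screen of spheroid viability in tumor-cell co-cultures with endothelial (HUVEC) and mesenchymal stem cell stroma. Each agent was tested in half-log dilutions, topping at clinical Cmax or at 10 microM without a known Cmax.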

[1] = curve of first compound, second compound 0.1 µM
[2] = curve of first compound, second compound 0.316 µM
[3] = curve of first compound, second compound 1 µM
[4] = curve of first compound, second compound 3.16 µM
[5] = curve of first compound, second compound 10 µM
[6] = second compound 0.1 µM, first compound 0.0316 µM
[7] = second compound 0.1 µM, first compound 0.1 µM
[8] = second compound 0.1 µM, first compound 0.316 µM
[9] = second compound 0.1 µM, first compound 1 µM
[10] = second compound 0.1 µM, first compound 3.16 µM
[11] = second compound 0.1 µM, first compound 10 µM
[12] = second compound 0.316 µM, first compound 0.0316 µM
[13] = second compound 0.316 µM, first compound 0.1 µM
[14] = second compound 0.316 µM, first compound 0.316 µM
[15] = second compound 0.316 µM, first compound 1 µM
[16] = second compound 0.316 µM, first compound 3.16 µM
[17] = second compound 0.316 µM, first compound 10 µM
[18] = second compound 1 µM, first compound 0.0316 µM
[19] = second compound 1 µM, first compound 0.1 µM
[20] = second compound 1 µM, first compound 0.316 µM
[21] = second compound 1 µM, first compound 1 µM
[22] = second compound 1 µM, first compound 3.16 µM
[23] = second compound 1 µM, first compound 10 µM
[24] = second compound 3.16 µM, first compound 0.0316 µM
[25] = second compound 3.16 µM, first compound 0.1 µM
[26] = second compound 3.16 µM, first compound 0.316 µM
[27] = second compound 3.16 µM, first compound 1 µM
[28] = second compound 3.16 µM, first compound 3.16 µM
[29] = second compound 3.16 µM, first compound 10 µM
[30] = second compound 10 µM, first compound 0.0316 µM
[31] = second compound 10 µM, first compound 0.1 µM
[32] = second compound 10 µM, first compound 0.316 µM
[33] = second compound 10 µM, first compound 1 µM
[34] = second compound 10 µM, first compound 3.16 µM
[35] = second compound 10 µM, first compound 10 µM
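Also: spheroids exposed to agents for 7 days.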
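For viability, T/C in this document: 100% = DMSO vehicle control viability.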

Structure (SMILES)	IC50 [1]	IC50 [2]	IC50 [3]	IC50 [4]	IC50 [5]	viability, T/C [6]	viability, T/C [7]	viability, T/C [8]	viability, T/C [9]	viability, T/C [12]	viability, T/C [13]	viability, T/C [14]	viability, T/C [15]	viability, T/C [18]	viability, T/C [19]	viability, T/C [20]	viability, T/C [21]	viability, T/C [24]	viability, T/C [25]	viability, T/C [26]	other results
CC1(C)CCC(CN2CCN(c3ccc(C(=O)NS(=O)(=O)c4ccc(NCC5CCOCC5)c([N+](=O)[O-])c4)c(Oc4cnc5[nH]ccc5c4)c3)CC2)=C(c2ccc(Cl)cc2)C1 + C=CC(=O)N1CCN(c2nc(=O)n(-c3c(C)ccnc3C(C)C)c3nc(-c4c(O)cccc4F)c(F)cc23)C(C)C1	1100 nM	1320 nM	1260 nM	1210 nM	81.8 nM	59.2%	59.6%	63.3%	52.7%	64.6%	58.1%	56.3%	60.4%	61.1%	61.9%	60.3%	59.5%	62%	62.3%	57.8%	viability, T/C [10]: 17%; viability, T/C [11]: 4.37%; viability, T/C [16]: 18.8%; viability, T/C [17]: 5.39%; viability, T/C [22]: 12%; viability, T/C [23]: 2.97%; viability, T/C [27]: 56.9%; viability, T/C [28]: 15.8%; viability, T/C [29]: 5.2%; viability, T/C [30]: 61%; viability, T/C [31]: 37.6%; viability, T/C [32]: 43.4%; viability, T/C [33]: 36.3%; viability, T/C [34]: 15.8%; viability, T/C [35]: 2.88%
CCN1CCN(Cc2ccc(Nc3ncc(F)c(-c4cc(F)c5nc(C)n(C(C)C)c5c4)n3)nc2)CC1 + C=CC(=O)N1CCN(c2nc(=O)n(-c3c(C)ccnc3C(C)C)c3nc(-c4c(O)cccc4F)c(F)cc23)C(C)C1	8.91 nM	6.62 nM	11.7 nM	6.49 nM	< 3.16 nM	39.8%	37.5%	37.1%	43.1%	38.7%	29.6%	33.5%	43.8%	36.4%	35.5%	31.6%	48.8%	38.1%	39.5%	33.4%	viability, T/C (second compound 0.1 µM, first compound 0.00316 µM): 57.6%; viability, T/C (second compound 0.1 µM, first compound 0.01 µM): 54.7%; viability, T/C (second compound 0.316 µM, first compound 0.00316 µM): 59.8%; viability, T/C (second compound 0.316 µM, first compound 0.01 µM): 46.5%; viability, T/C (second compound 1 µM, first compound 0.00316 µM): 51%; viability, T/C (second compound 1 µM, first compound 0.01 µM): 52.8%; viability, T/C (second compound 3.16 µM, first compound 0.00316 µM): 56.6%; viability, T/C (second compound 3.16 µM, first compound 0.01 µM): 49.1%; viability, T/C [27]: 51.5%; viability, T/C (second compound 10 µM, first compound 0.00316 µM): 38.6%; viability, T/C (second compound 10 µM, first compound 0.01 µM): 52.2%; viability, T/C [30]: 37.6%; viability, T/C [31]: 36.5%; viability, T/C [32]: 37.1%; viability, T/C [33]: 45.4%
C=CC(=O)N1CCN(c2nc(OCC3CCCN3C)nc3c2CCN(c2cccc4cccc(C)c24)C3)CC1CC#N (stereo not given)																					viability, T/C (compound 0.0316 µM): 70.1% [middle of 17 runs]; viability, T/C (compound 0.1 µM): 60.4% [middle of 17 runs]; viability, T/C (compound 1 µM): 57.9% [middle of 17 runs]; IC50 (compound alone, run of 08/26/2021): 1.07 µM [middle of 5 runs]; IC50 (compound alone, run of 09/02/2021): 1.12 µM [middle of 6 runs]
COc1cc(Nc2ncc3c(n2)-c2ccc(Cl)cc2C(c2c(F)cccc2OC)=NC3)ccc1C(=O)O + CNCc1ccccc1-c1csc(C(C)Nc2nc(C)nc3cc(OC)c(OC)cc23)c1	128 nM	92.6 nM	96.4 nM	> 10000 nM	< 31.6 nM	80.2%	52.9%	32%	39.3%	78.8%	50.2%	33.6%	35.6%	85.6%	51%	31.9%	37.9%	88.2%	36.9%	17.9%	viability, T/C [10]: 55.5%; viability, T/C [11]: 63.5%; viability, T/C [16]: 52.3%; viability, T/C [17]: 55.2%; viability, T/C [22]: 51.1%; viability, T/C [23]: 60%; viability, T/C [27]: 39.5%; viability, T/C [28]: 63.3%; viability, T/C [29]: 64.6%; viability, T/C [30]: 0.29%; viability, T/C [31]: 0.17%; viability, T/C [32]: 0.16%; viability, T/C [33]: 0.2%; viability, T/C [34]: 0.35%; viability, T/C [35]: 0.26%
